How the values were obtained:
Type in all cases: in vivo, human
[1] = test system: patients with Cushing's disease; assay: Case One: ACTH and cortisol response to mifepristone in Cushing's disease patients after transphenoidal surgery, with or without radiation therapy
Description: (§1) Hypercortisolism can result from excessive pituitary ACTH secretion, ectopic ACTH synthesis, overproduction of cortisol by an adrenal tumor, and rarely by extra-hypothalamic CRH production. Identifying the cause of excess cortisol production relies upon the sensitivity of pituitary-dependent ACTH secretion to inhibition by pharmacologic doses of dexamethasone. Mifepristone is a glucocorticoid receptor antagonist approved for the treatment of hyperglycemia in patients with Cushing's disease. It was hypothesized that mifepristone, by blocking glucocorticoid receptors, could be used to identify patients with pituitary-dependent hypercortisolism (i.e., Cushing's disease), as ACTH and cortisol levels should rise in these patients following mifepristone administration, while ACTH and cortisol should not change following mifepristone administration in patients with ectopic ACTH or primary adrenal disease (i.e., Cushing's syndrome). To test this hypothesis, patients with either Cushing's Disease or Cushing's Syndrome were administered mifepristone and monitored under the following conditions. Data are presented relating to ACTH and cortisol responses in patients with Cushing's disease following transphenoidal surgery (n=18) (i.e., surgery in which surgical instruments are inserted into part of the brain by going through the nose and the sphenoid bone (a butterfly-shaped bone at the base of the skull) in order to remove tumors of the pituitary gland), patients with Cushing's disease following transphenoidal surgery and pituitary radiation therapy (n=23), and patients with Cushing's syndrome secondary to ectopic ACTH secretion (n=4). All patients received mifepristone 300 mg orally per day. ACTH and cortisol were measured as close to 8 AM as possible using a centralized laboratory (Quest Diagnostics, Collegeville, Pa.) 14 days after commencing mifepristone therapy.

[2] = test system: person with adrenal insufficiency; assay: Case Three: ACTH and cortisol before and after a single mifepristone dose in adrenal insufficiency; conditions: 8 AM on the day after a single 300 mg dose
Method: ACTH and cortisol levels were low (ACTH<[…] and cortisol 2.4 micrograms/deciliter following exogenous ACTH administration). Based upon the finding of both low ACTH and cortisol, the cause of their adrenal insufficiency could be due to pituitary or to hypothalamic disease. […] ACTH and cortisol were measured at 8 AM on the day after they received a single dose of 300 mg mifepristone.

[3] = test system: person with recurrent Cushing's disease; assay: Case Two: ACTH and cortisol before and after a single mifepristone dose in recurrent Cushing's disease; conditions: 8 AM the morning following a 300 mg dose
Method: A person with recurrent Cushing's disease following pituitary surgery received a dose of 300 mg mifepristone. ACTH and cortisol were measured at 8 AM prior to and at 8 AM the morning following the dose of mifepristone.

[4] = test system: patients with Cushing's syndrome secondary to ectopic ACTH secretion; assay: Case One: ACTH and cortisol response to mifepristone in Cushing's syndrome secondary to ectopic ACTH secretion
Description: as §1

[5] = Cushing's disease after surgery and radiation therapy, Day 14 vs Day 0, mifepristone 300 mg/day orally
[6] = Cushing's disease, no radiation therapy, Day 14 vs Day 0, mifepristone 300 mg/day orally
[7] = Cushing's syndrome due to ectopic ACTH, Day 14 vs Day 0, NS

CC#C[C@]1(O)CC[C@H]2[C@@H]3CCC4=CC(=O)CCC4=C3[C@@H](c3ccc(N(C)C)cc3)C[C@@]21C [mifepristone]
ACTH s/p RT, Fold change [1, 5]: 1.40 ± .45 | cortisol s/p RT, Fold change [1, 5]: 1.24 ± .23 | rise in ACTH and cortisol, no radiation therapy versus radiation therapy ([1]; Cushing's disease no RT compared with s/p RT, mifepristone 300 mg/day, 14 days): significantly greater rise | ACTH no RT, Fold change [1, 6]: 2.13 ± .96 | cortisol no RT, Fold change [1, 6]: 1.56 ± .6 | cortisol Post-mifepristone ([2]; pre-mifepristone 2.1): 11.3 micrograms/deciliter | ACTH Post-mifepristone ([2]; pre-mifepristone <5): 13 picograms/ml plasma | cortisol Post-mifepristone ([3]; pre-mifepristone 19.7): 32.9 micrograms/deciliter | ACTH Post-mifepristone ([3]; pre-mifepristone 84): 129 picograms/ml plasma | ACTH, Fold change [4, 7]: 1.75 ± .75 | cortisol, Fold change [4, 7]: 1.21 ± .79 | change in ACTH or cortisol following mifepristone therapy ([4]; patients with ectopic ACTH, mifepristone 300 mg/day, 14 days): substantially no significant change
